According to publication PMC7253423, “Quassinoid analogs with enhanced efficacy for treatment of hematologic malignancies target the PI3Kγ isoform” (Communications Biology, 2020):
Values joined by “and” are separate entries in the source; they are usually repeats but may differ in a detail not shown here. Equal entries are not always repeated.

What was measured:
[1] = Body weight of xenograft mice; format: in vivo, NOD/SCID mice; details: individual mice, Fig S3i, in g (unit assumed)
Protocol: (§1) Six-week-old male NOD.CB17-Prkdc^scid/J (NOD/SCID) mice (Jackson Labs, Bar Harbor, ME, USA) were used as the human-in-mouse xeno-transplantation model. MOLM14 cells (1 × 10^7 cells) were injected into the subcutaneous space on the left flank of the mice. […] Body weight and tumor size were monitored before every injection. After treatment for 2 weeks, the mice were euthanized by CO2 inhalation and the tumors were carefully excised. The tumor volume (mm^3) was measured and calculated using the formula (a × b × b)/2 (a, the largest diameter of two measurements; b, the smallest diameter of two measurements).

Raji cells = assay: Cell viability assay (CellTiter-Glo luminescence); format: cell-based, human; details: Homo sapiens, analogs, 72 h, Fig. 5c, read-out: IC50
Protocol: (§2) 5000 cells as indicated were cultured in 96-well plate with 100 μl of media. […] After treatment, the cells were incubated with 100 μl buffer for 10 min at room temperature following the instructions of CellTiter-Glo kit (Promega, Madison, WI). Luminescence was detected using a multi-mode reader Cytation 5 (BioTek, Winooski, VT). […] Two independent experiments done in duplicates were performed.

MOLM14 xenografts = assay: In vivo tumorigenic assay using xenografts, tumor size; parameters: species or system NOD/SCID mice; details: MOLM14 xenograft
Protocol: as §1

PBMC = assay: Cytotoxicity, cell viability assay in normal cells; format: cell-based, human; details: Fig 5c
Source text: Human peripheral blood mononuclear cells (PBMCs), normal T-cells and B-cells were provided by the University of Pennsylvania Human Immunology Core (HIC), and Patient-derived xenografts (PDXs) were obtained from Fox Chase Cancer Center (FCCC). These samples were from different unidentified and healthy donors with written, informed consent. All the procedures were approved by the Institutional Review Board (IRB) and conducted according to the declarations of Helsinki protocols.
as §2

[2] = system: hematologic malignancies derived cell lines; assay: Cell viability assay, panel of hematologic malignancy derived cell lines; format: cell-based, human; details: 100 nM, 72 h, lymphoma, leukemia and multiple myeloma cell lines (13 cell lines for analogs)
Protocol: 5000 cells as indicated were cultured in 96-well plate with 100 μl of media. On the next day, Brusatol or associated analogs were added once to the cells without media change. After treatment, the cells were incubated with 100 μl buffer for 10 min at room temperature following the instructions of CellTiter-Glo kit (Promega, Madison, WI). Luminescence was detected using a multi-mode reader Cytation 5 (BioTek, Winooski, VT). […] Two independent experiments done in duplicates were performed.

SMILES: COC(=O)C12OCC34C(CC5C(C)=C(OC(=O)C6CCCN6)C(=O)CC5(C)C3C(O)C1O)OC(=O)C(OC(=O)C=C(C)C)C24 (stereo not drawn) [#31]
- Body weight ([1]; 0d): 25.68 and 24.55 and 25.16 and 23.48
- Body weight ([1]; 2d): 27.27 and 26.58 and 25.38 and 25.93 and 25.43 and 23.7
- Body weight ([1]; 4d): 26.97 and 26.67 and 25.81 and 25.44 and 25.69
- Body weight ([1]; 6d): 27.97 and 26.96 and 26.09
- Body weight ([1]; 8d): 28.38 and 27.82 and 26.73 and 25.66
- Body weight ([1]; 10d): 28.24 and 27.47 and 25.9 and 26.82 and 26.06
- Body weight ([1]; 12d): 29.56 and 29.11 and 26.31 and 27.31
- IC50 (Raji cells): 36.5 nM
- tumor size (Fig 5d&5e), individual mice (MOLM14 xenografts; 0d): 74.2529 and 62.0281 and 101.973 and 60.5009 and 91.8956 and 82.6996
- tumor size (Fig 5d&5e), individual mice (MOLM14 xenografts; 2d): 107.191 and 120.034 and 71.2216 and 100.836 and 98.4479 and 88.2667
- tumor size (Fig 5d&5e), individual mice (MOLM14 xenografts; 4d): 99.5578 and 195.79 and 71.7513 and 67.0262 and 52.5262 and 97.4505
- tumor size (Fig 5d&5e), individual mice (MOLM14 xenografts; 6d): 95.2698 and 78.8527 and 143.077 and 70.9567 and 158.17 and 228.179
- tumor size (Fig 5d&5e), individual mice (MOLM14 xenografts; 8d): 324.747 and 668.944 and 318.873 and 96.919 and 128.11 and 346.937
- tumor size (Fig 5d&5e), individual mice (MOLM14 xenografts; 10d): 458.137 and 927.585 and 502.969 and 200.67 and 236.721 and 666.334
- tumor size (Fig 5d&5e), individual mice (MOLM14 xenografts; 12d): 959.947 and 1557.75 and 485.372 and 249.92 and 359.5 and 1074.17
- Cell viability, raw luminescence reading (PBMC; Con. 0.01 μM): 21395 and 22004
- Cell viability, raw luminescence reading (PBMC; Con. 0.039 μM): 12976 and 10747
- Cell viability, raw luminescence reading (PBMC; Con. 0.156 μM): 7357 and 6947
- Cell viability, raw luminescence reading (PBMC; Con. 0.625 μM): 8946 and 8046
- Cell viability, raw luminescence reading (PBMC; Con. 10 μM): 8102 and 7279
- inhibition of cell viability in panel of cell lines [2]: significantly inhibit
